Test results taken from patent US10874709B2, “Conjugate of salicylic acid and peptide” (CAREGEN CO., LTD., priority 2017, dated 2020).
Ends that are not written are not given here.

Experiments:
[1] = system: TNF-α, IL-6, IL-1b, and COX-2; assay: Anti-inflammatory effect, Propionibacterium acnes-induced inflammatory cytokine mRNA by RT-PCR; type: cell-based; details: keratinocyte, 50 μg/ml Propionibacterium acnes, 50 μM, 24 hours
Protocol: Anti-inflammatory effects of the compounds of the present disclosure were examined using Propionibacterium acnes. To this end, keratinocyte was seeded in a 6-well plate at a density of 300,000 cells per well, and then incubated in a DMEM culture medium (Gibco, USA) containing 10% FBS for 24 hours under conditions of 37° C. and 5% CO2. After replacing the medium by a fresh medium, the cells were treated with 50 μg/ml of Propionibacterium acnes, and then the treated Propionibacterium acnes was treated with each 50 μM of the compound 1 and the compound 3 of the present disclosure and salicylic acid used as the positive control, followed by incubation for 24 hours under the same conditions as above. RNA was isolated from the cells, and cDNA was synthesized using a cDNA synthesis kit (Intron, Korea). PCR premix (Intron, Korea) and primers for each of TNF-α, IL-6, IL-1b, and COX-2 in Table 3 below were used to perform PCR. mRNA levels of TNF-α, IL-6, IL-1 b and COX-2 were determined by 5% agarose gel electrophoresis.

[2] = Test of solubility in water; type: physicochemical; details: distilled water, concentration of 10 mg/ml
[3] = system: HaCaT keratinocyte cell line; assay: Keratinocyte growth, sulforhodamine B colorimetric assay; type: cell-based; details: 50 μM, 72 hours, SRB, absorbance 560 nm
Protocol: (Cancer Res. 48:4266(1988)) […] The cultured cell line was detached from the bottom of the culture plate using a 1% trypsin solution, and only cell precipitate was collected by centrifugation. The cell precipitate was suspended in DMEM without FBS, and then cultured for 24 hours under conditions of 37° C. and 5% CO2. 24 hours later, the medium was replaced by the same medium from which serum was completely removed. A blank sample in which the cell precipitate was dissolved sterile in 10% DMSO was prepared for standardization. Each of the compound 1 to the compound 4 (50 μM) of the present disclosure, salicylic acid (50 μM), and EGF (100 nM) as a positive control were treated. Incubation was carried out under the same conditions as above for 72 hours. After completing the incubation, each culture supernatant was removed and cells were fixed with ethanol and washed with phosphate buffer saline (PBS) three times. After removing the washing solution, the cells were treated with a colorimetric SRB solution, and then sufficiently washed with 1% acetic acid. The cells were observed under a microscope to examine living cells. Absorbance at UV 560 nm was measured to determine cell viability.

Propionibacterium acnes = assay: Antibacterial effect, paper disc clear zone on agar plate; type: cell-based; details: paper discs soaked with 200 mM, 3 days
Protocol: Antibacterial effects of the compounds synthesized in Example <1-2> were examined using Propionibacterium acnes. To this end, Propionibacterium acnes was first cultured on an agar plate. Paper discs were soaked with each 200 mM of the compound 1 to the compound 4 synthesized in Example <1-2> and salicylic acid, and then the paper disc soaked with the sample was placed on the agar plate on which Propionibacterium acnes had been cultured, followed by incubation. 3 days later, the size of a clear zone with no microbial growth was measured to determine the antibacterial effect of each compound.

[4] = system: collagen, elastin, and fibronectin; assay: Extracellular matrix mRNA expression by RT-PCR; type: cell-based; details: NIH3T3 fibroblast, 50 μM, 72 hours, as compared with salicylic acid
Protocol: (§1) Effects of the compounds of the present disclosure on extracellular matrix expression were examined using NIH3T3 fibroblast. To this end, NIH3T3 fibroblast was seeded in a 6-well plate at a density of 300,000 cells per well, and then incubated in a DMEM culture medium (Gibco, USA) containing 10% FBS for 24 hours under conditions of 37° C. and 5% CO2. The cultured cell line was detached from the bottom of the culture plate using a 1% trypsin solution, and a cell precipitate was collected by centrifugation. The cell precipitate was suspended in DMEM without FBS, and then cultured for 24 hours under conditions of 37° C. and 5% CO2. 24 hours later, the medium was replaced by the same medium from which serum was completely removed. A blank sample in which the cell precipitate was dissolved sterile in 10% DMSO was prepared for standardization. Each of the compound 1 and the compound 3 of the present disclosure, and salicylic acid as a positive control were treated at a concentration of 50 μM. Incubation was carried out under the same conditions as above for 72 hours. […]
Meanwhile, RNA was isolated from the cells treated in the same manner as the above experiment, and then cDNA was synthesized using a cDNA synthesis kit (Intron, Korea). […] Thereafter, mRNA levels of collagen, elastin, and fibronectin were determined by 5% agarose gel electrophoresis.

[5] = system: collagen, elastin, and fibronectin; assay: Extracellular matrix protein expression by immunocytostaining; type: cell-based; details: NIH3T3 fibroblast, 50 μM, 72 hours, as compared with salicylic acid
Protocol: as §1, with “hours. Thereafter, to examine collagen, elastin, and fibronectin expression by immunocytostaining, cells were fixed with 4% paraformaldehyde, permeated with 0.5% Triton X-100, and blocked with 3% BSA.” for “hours.”

| Molecule | expression of inflammatory cytokines induced by Propionibacterium acnes [1] | solubility in water [2] | growth of keratinocytes [3] | antibacterial effect (size of clear zone) (Propionibacterium acnes) | mRNA expression levels of collagen, elastin, and fibronectin [4] | protein expression levels of collagen, elastin, and fibronectin [5] |
| --- | --- | --- | --- | --- | --- | --- |
| O=C(O)c1ccccc1O [salicylic acid, 2-hydroxybenzoic acid] | hardly inhibited | hardly dissolved in water | inhibited growth of keratinocytes due to toxicity |  |  |  |
| compound 3: salicylic acid linked via covalent bond to peptide of SEQ ID NO: 3 (KLKKTETQ) (also: salicylic acid linked via covalent bond) | remarkably reduced |  |  | remarkably increased antibacterial effects | remarkably increased | remarkably increased |
